Legend:
[1] = target: T1, human recombinant adrenergic α1D receptor (Homo sapiens, UniProt P25100); experiment: Adrenergic alpha1D radioligand binding ([3H]Prozosin); conditions: compound at 1 μM; read-out: Adrenergic (1 μM) α1D, percent inhibition of specific binding
T1 construct: expressed in transfected cells; host or cells: HEK-293 cells
T1 sequence (P25100 1-572): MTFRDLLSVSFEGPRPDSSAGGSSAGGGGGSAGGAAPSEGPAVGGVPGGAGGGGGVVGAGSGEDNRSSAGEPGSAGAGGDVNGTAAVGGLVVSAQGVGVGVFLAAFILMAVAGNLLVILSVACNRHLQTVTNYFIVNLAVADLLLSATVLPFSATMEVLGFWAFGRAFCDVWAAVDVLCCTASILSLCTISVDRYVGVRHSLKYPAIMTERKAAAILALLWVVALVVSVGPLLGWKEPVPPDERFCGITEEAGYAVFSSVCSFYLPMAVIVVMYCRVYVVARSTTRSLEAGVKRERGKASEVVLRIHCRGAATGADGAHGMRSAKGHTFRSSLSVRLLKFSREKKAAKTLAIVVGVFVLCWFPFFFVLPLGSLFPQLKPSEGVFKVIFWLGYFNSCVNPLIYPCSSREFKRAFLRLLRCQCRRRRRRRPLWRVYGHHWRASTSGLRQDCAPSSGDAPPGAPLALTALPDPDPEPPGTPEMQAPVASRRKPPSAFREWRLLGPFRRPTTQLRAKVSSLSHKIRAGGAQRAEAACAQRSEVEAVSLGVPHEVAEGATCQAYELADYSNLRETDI
Description: To evaluate in radioligand binding assays the activity of compounds of the invention, human recombinant adrenergic α1D receptor expressed in human embryonic kidney (HEK-293) cells (Kenny, B. A. et al. Br. J. Pharmacol. 115(6):981, 1995) in a 50 mM Tris-HCl buffer, pH 7.4, was used. Compounds of invention were incubated with 0.6 nM [^3H]Prozosin for 60 min. at 25° C. Non-specific binding was estimated in the presence of 10 μM phentolamine. Receptor proteins were filtered and washed, the filters were then counted to determine [^3H]Prozosin specifically bound. Compounds were screened at 1 μM or lower, using 1% DMSO as vehicle. Biochemical assay results are presented as the percent inhibition of specific binding in Table 5.

[2] = target: T2, human recombinant histamine H1 receptor (Homo sapiens, UniProt P35367); experiment: Histamine H1 radioligand binding ([3H]Pyrilamine); conditions: compound at 1 μM; read-out: Histamine Binding (1 μM) H1, percent inhibition of specific binding
T2 construct: expressed in transfected cells; host or cells: CHO cells
Method in brief: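 Membranes from CHO cells expressing the receptor were incubated with compound and 1.2 nM [3H]pyrilamine for 180 min at 25 °C in 50 mM Tris-HCl pH 7.4 with MgCl2, NaCl and sucrose; 1 μM pyrilamine defined non-specific binding. Filter-bound radioactivity was counted.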

[3] = target: T3, human recombinant serotonin (5-Hydroxytryptamine) 5-HT2A receptor (Homo sapiens, UniProt P28223); experiment: Serotonin 5-HT2A radioligand binding ([3H]Ketanserin); conditions: compound at 1 μM; read-out: Serotonin (1 μM) 5-HT2A, percent inhibition of specific binding
T3 construct: expressed in transfected cells; host or cells: CHO-K1 cells
Method in brief: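 Percent inhibition of specific [3H]ketanserin (0.5 nM) binding, filtration read-out, with compounds at ≤1 μM (1% DMSO vehicle). Receptor source: recombinant human 5-HT2A in CHO-K1 cells, 50 mM Tris-HCl pH 7.4, 60 min, 25 °C; 1 μM mianserin gives nonspecific binding.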

[4] = target: T4, human recombinant serotonin (5-Hydroxytryptamine) 5-HT6 receptor (Homo sapiens, UniProt P50406); experiment: Serotonin 5-HT6 radioligand binding ([3H]LSD); conditions: compound at 1 μM; read-out: Serotonin (1 μM) 5-HT6, percent inhibition of specific binding
T4 construct: expressed in transfected cells; host or cells: human HeLa cells
Method in brief: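 Human recombinant 5-HT6 receptor from HeLa cells incubated with 1.5 nM [3H]LSD for 120 min at 37° C in 50 mM Tris-HCl pH 7.4, 150 mM NaCl, 2 mM ascorbic acid, 0.001% BSA. Nonspecific binding defined with 5 μM serotonin; bound ligand counted after filtration.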

T2 sequence (P35367 whole entry): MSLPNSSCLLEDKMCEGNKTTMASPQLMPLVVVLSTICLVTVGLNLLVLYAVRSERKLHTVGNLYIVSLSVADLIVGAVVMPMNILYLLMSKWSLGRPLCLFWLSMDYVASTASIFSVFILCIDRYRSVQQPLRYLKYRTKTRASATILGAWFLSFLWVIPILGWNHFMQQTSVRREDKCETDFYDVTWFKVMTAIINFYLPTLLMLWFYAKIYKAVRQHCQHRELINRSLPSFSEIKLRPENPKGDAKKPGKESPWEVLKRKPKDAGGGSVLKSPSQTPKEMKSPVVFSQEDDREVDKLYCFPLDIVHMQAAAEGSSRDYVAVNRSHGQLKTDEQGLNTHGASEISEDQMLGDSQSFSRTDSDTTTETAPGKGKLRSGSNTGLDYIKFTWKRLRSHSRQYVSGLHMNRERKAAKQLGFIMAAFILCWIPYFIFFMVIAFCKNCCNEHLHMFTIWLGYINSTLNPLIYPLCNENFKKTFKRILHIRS
T4 sequence (P50406 whole entry): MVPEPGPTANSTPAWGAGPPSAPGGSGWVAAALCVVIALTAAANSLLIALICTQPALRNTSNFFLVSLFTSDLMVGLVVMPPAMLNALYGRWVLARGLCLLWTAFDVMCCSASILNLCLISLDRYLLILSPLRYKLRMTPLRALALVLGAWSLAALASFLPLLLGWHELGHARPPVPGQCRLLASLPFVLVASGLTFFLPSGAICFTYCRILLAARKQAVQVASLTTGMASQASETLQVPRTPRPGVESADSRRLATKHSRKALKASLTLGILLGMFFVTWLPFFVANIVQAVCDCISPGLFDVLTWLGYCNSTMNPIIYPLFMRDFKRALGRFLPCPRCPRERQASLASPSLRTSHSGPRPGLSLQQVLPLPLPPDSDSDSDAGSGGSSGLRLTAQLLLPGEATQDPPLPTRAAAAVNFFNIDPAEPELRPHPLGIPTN
T3 sequence (P28223 whole entry): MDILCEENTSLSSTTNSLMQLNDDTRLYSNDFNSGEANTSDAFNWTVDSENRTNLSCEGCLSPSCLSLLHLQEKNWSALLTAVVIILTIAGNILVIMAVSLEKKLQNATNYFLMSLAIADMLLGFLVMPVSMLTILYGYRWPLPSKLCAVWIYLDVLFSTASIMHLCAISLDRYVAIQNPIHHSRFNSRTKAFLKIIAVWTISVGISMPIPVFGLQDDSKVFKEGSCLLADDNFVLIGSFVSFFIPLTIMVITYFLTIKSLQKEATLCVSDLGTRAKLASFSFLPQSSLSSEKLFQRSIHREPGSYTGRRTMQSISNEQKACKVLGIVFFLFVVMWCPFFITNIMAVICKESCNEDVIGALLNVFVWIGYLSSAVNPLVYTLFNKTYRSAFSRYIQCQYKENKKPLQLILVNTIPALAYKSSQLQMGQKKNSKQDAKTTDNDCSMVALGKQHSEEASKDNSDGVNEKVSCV

Cc1ccc2c(c1)c1c(n2CCc2ccccn2)CCN(C)CC1 [Compound No. 9, 1,2,3,4,5,6-hexahydro-3,9-dimethyl-6-(2-(pyridin-2-yl)ethyl)azepino[4,5-b]indole]
inhibition at 1 µM [1]: 80% | inhibition at 1 µM [2]: 99% | inhibition at 1 µM [3]: 96% | inhibition at 1 µM [4]: 81%

CN1CCc2c(n(CC(=O)N3CCCC3)c3ccc(Cl)cc23)CC1 [Compound No. 53, 2-(9-chloro-2,3,4,5-tetrahydro-3-methylazepino[4,5-b]indol-6(1H)-yl)-1-(pyrrolidin-1-yl)ethanone]
inhibition at 1 µM [1]: 13% | inhibition at 1 µM [2]: 14% | inhibition at 1 µM [3]: 41% | inhibition at 1 µM [4]: -1%

Cc1ccc2c(c1)c1c(n2/C=C/c2ccc(F)cc2)CCN(C)CC1 [Compound No. 39, 6-(4-fluorostyryl)-1,2,3,4,5,6-hexahydro-3,9-dimethylazepino[4,5-b]indole]
inhibition at 1 µM [1]: 99% | inhibition at 1 µM [2]: 98% | inhibition at 1 µM [3]: 98% | inhibition at 1 µM [4]: 103%

Cc1ccc2c(c1)c1c(n2/C=C/c2ccc(Cl)cc2)CCN(C)CC1 [Compound No. 235, (E)-6-(4-chlorostyryl)-3,9-dimethyl-1,2,3,4,5,6-hexahydroazepino[4,5-b]indole]
inhibition at 1 µM [1]: 95% | inhibition at 1 µM [2]: 97% | inhibition at 1 µM [3]: 102% | inhibition at 1 µM [4]: 97%

COc1ccc(C(O)Cn2c3c(c4cc(C)ccc42)CCN(C)CC3)c(F)c1 (stereo not drawn) [Compound No. 50, 1-(2-fluoro-4-methoxyphenyl)-2-(2,3,4,5-tetrahydro-3,9-dimethylazepino[4,5-b]indol-6(1H)-yl)ethanol]
inhibition at 1 µM [1]: 84% | inhibition at 1 µM [2]: 98% | inhibition at 1 µM [3]: 98% | inhibition at 1 µM [4]: 88%

CN1CCc2c(n(CC(=O)Nc3ccc(F)cc3)c3ccc(Cl)cc23)CC1 [Compound No. 37, 2-(9-chloro-2,3,4,5-tetrahydro-3-methylazepino[4,5-b]indol-6(1H)-yl)-N-(4-fluorophenyl) acetamide]
inhibition at 1 µM [1]: 14% | inhibition at 1 µM [2]: 13% | inhibition at 1 µM [3]: 91% | inhibition at 1 µM [4]: 12%

C=C(Cn1c2c(c3cc(Cl)ccc31)CCN(C)CC2)c1ccc(Cl)cc1 [Compound No. 35, 9-chloro-6-(2-(4-chlorophenyl)allyl)-3-methyl-1,2,3,4,5,6-hexahydroazepino[4,5-b]indole]
inhibition at 1 µM [1]: 96% | inhibition at 1 µM [2]: 100% | inhibition at 1 µM [3]: 99% | inhibition at 1 µM [4]: 102%

Cc1ccc2c(c1)c1c(n2CC(=O)NC2CCCCC2)CCN(C)CC1 [Compound No. 22, N-cyclohexyl-2-(2,3,4,5-tetrahydro-3,9-dimethylazepino[4,5-b]indol-6(1H)-yl)acetamide]
inhibition at 1 µM [1]: 1% | inhibition at 1 µM [2]: 12% | inhibition at 1 µM [3]: -2% | inhibition at 1 µM [4]: -12%

CN1CCc2c(n(CC(=O)Nc3ccccc3)c3ccc(Cl)cc23)CC1 [Compound No. 73, 2-(9-chloro-2,3,4,5-tetrahydro-3-methylazepino[4,5-b]indol-6(1H)-yl)-N-phenylacetamide]
inhibition at 1 µM [1]: 1% | inhibition at 1 µM [2]: 18% | inhibition at 1 µM [3]: 18% | inhibition at 1 µM [4]: 0%

CN1CCc2c(n(C#Cc3ccc(Cl)cc3)c3ccc(Cl)cc23)CC1 [Compound No. 282, 9-chloro-6-((4-chlorophenyl)ethynyl)-3-methyl-1,2,3,4,5,6-hexahydroazepino[4,5-b]indole]
inhibition at 1 µM [1]: 67% | inhibition at 1 µM [2]: 99% | inhibition at 1 µM [3]: 98% | inhibition at 1 µM [4]: 71%

Cc1ccc2c(c1)c1c(n2CCc2ccccc2Cl)CCN(C)CC1 [Compound No. 69, 6-(2-chlorophenethyl)-1,2,3,4,5,6-hexahydro-3,9-dimethylazepino[4,5-b]indole]
inhibition at 1 µM [1]: -5% | inhibition at 1 µM [2]: 2% | inhibition at 1 µM [3]: 52% | inhibition at 1 µM [4]: -4%

COc1ccc(/C=C/n2c3c(c4cc(C)ccc42)CCN(C)CC3)c(F)c1 [Compound No. 230, (E)-6-(2-fluoro-4-methoxystyryl)-3,9-dimethyl-1,2,3,4,5,6-hexahydroazepino[4,5-b]indole]
inhibition at 1 µM [1]: 97% | inhibition at 1 µM [2]: 95% | inhibition at 1 µM [3]: 97% | inhibition at 1 µM [4]: 100%

Cc1ccc2c(c1)c1c(n2CCc2ccncc2)CCN(C)CC1 [Compound No. 6, 1,2,3,4,5,6-hexahydro-3,9-dimethyl-6-(2-(pyridin-4-yl)ethyl)azepino[4,5-b]indole]
inhibition at 1 µM [1]: 92% | inhibition at 1 µM [2]: 103% | inhibition at 1 µM [3]: 96% | inhibition at 1 µM [4]: 82%

Cc1ccc2c(c1)c1c(n2CCc2ccc(C(=O)O)nc2)CCN(C)CC1 [Compound No. 11, 5-(2-(2,3,4,5-tetrahydro-3,9-dimethylazepino[4,5-b]indol-6(1H)-yl)ethyl)pyridine-2-carboxylic acid]
inhibition at 1 µM [1]: 7% | inhibition at 1 µM [2]: 97% | inhibition at 1 µM [3]: 5% | inhibition at 1 µM [4]: 4%

Cc1ccc2c(c1)c1c(n2CC(=O)N(C)C2CCCCC2)CCN(C)CC1 [Compound No. 232, N-cyclohexyl-2-(3,9-dimethyl-2,3,4,5-tetrahydroazepino[4,5-b]indol-6(1H)-yl)-N-methylacetamide]
inhibition at 1 µM [1]: 29% | inhibition at 1 µM [2]: 95% | inhibition at 1 µM [3]: 70% | inhibition at 1 µM [4]: 20%

CN1CCc2c(n(CC(C)(O)c3ccc(F)cc3)c3ccc(Cl)cc23)CC1 (stereo not drawn) [Compound No. 13, 1-(9-chloro-2,3,4,5-tetrahydro-3-methylazepino[4,5-b]indol-6(1H)-yl)-2-(4-fluorophenyl)propan-2-ol]
inhibition at 1 µM [1]: 76% | inhibition at 1 µM [2]: 98% | inhibition at 1 µM [3]: 97% | inhibition at 1 µM [4]: 100%

COc1ccc(C(O)Cn2c3c(c4cc(Cl)ccc42)CCN(C)CC3)c(F)c1 (stereo not drawn) [Compound No. 49, 2-(9-chloro-2,3,4,5-tetrahydro-3-methylazepino[4,5-b]indol-6(1H)-yl)-1-(2-fluoro-4-methoxyphenyl) ethanol]
inhibition at 1 µM [1]: 71% | inhibition at 1 µM [2]: 94% | inhibition at 1 µM [3]: 97% | inhibition at 1 µM [4]: 88%

Cc1ccc2c(c1)c1c(n2CC(=O)N2CCCCC2)CCN(C)CC1 [Compound No. 32, 2-(2,3,4,5-tetrahydro-3,9-dimethylazepino[4,5-b]indol-6(1H)-yl)-1-(piperidin-1-yl)ethanone]
inhibition at 1 µM [1]: 4% | inhibition at 1 µM [2]: 11% | inhibition at 1 µM [3]: 60% | inhibition at 1 µM [4]: 4%

CN1CCc2c(n(CC(O)c3ccc(F)cc3)c3ccc(Cl)cc23)CC1 (stereo not drawn) [Compound No. 51, 2-(9-chloro-2,3,4,5-tetrahydro-3-methylazepino[4,5-b]indol-6(1H)-yl)-1-(4-fluorophenyl) ethanol]
inhibition at 1 µM [1]: 85% | inhibition at 1 µM [2]: 102% | inhibition at 1 µM [3]: 97% | inhibition at 1 µM [4]: 94%

Cc1ccc2c(c1)c1c(n2CC(O)c2ccncc2)CCN(C)CC1 (stereo not drawn) [Compound No. 43, 2-(2,3,4,5-tetrahydro-3,9-dimethylazepino[4,5-b]indol-6(1H)-yl)-1-(pyridin-4-yl)ethanol]
inhibition at 1 µM [1]: 70% | inhibition at 1 µM [2]: 100% | inhibition at 1 µM [3]: 93% | inhibition at 1 µM [4]: 48%

CN1CCc2c(n(CC(=O)N3CCNCC3)c3ccc(Cl)cc23)CC1 [Compound No. 72, 2-(9-chloro-2,3,4,5-tetrahydro-3-methylazepino[4,5-b]indol-6(1H)-yl)-1-(piperazin-1-yl)ethanone]
inhibition at 1 µM [1]: 17% | inhibition at 1 µM [2]: -12% | inhibition at 1 µM [3]: 23% | inhibition at 1 µM [4]: 39%

Source: US9481676B2, “Azepino[4,5-B]indoles and methods of use” (Medivation Technologies, Inc., priority 2008, dated 2016)
